In PMC10913484, “Hydroxyhexylitaconic acids as potent IMP-type metallo-β-lactamase inhibitors for controlling carbapenem resistance in Enterobacterales” (Microbiology Spectrum, 2024):
Converted amounts (≈) assume the structure as drawn. Like-named read-outs stand apart in the source and are kept apart here. Values belong to the compound of their own block, whether it stands above or below them.

Columns and labels:
E. coli DH5α pBC-VIM-2 = experiment: Susceptibility test (microdilution), transformant; format: cell-based
Experimental: (§1) Susceptibility testing, based on the microdilution method, was performed according to the guidelines of the Clinical and Laboratory Standards Institute ([36]).

IMP-1 [1] = biological target: T1, IMP-1 (Serratia marcescens, UniProt P52699); format: biochemical; settings: IMP-1 with agent (5 mM stock), dialysis
T1 construct: made in house
Experimental: A total of 5 µL of IMP-1 (100 µM) and 2 µL of EDTA (5 mM) or HHIA (5 mM) were mixed in 100 µL of 20 mM HEPES buffer (pH 7.5) pretreated with Chelex 100 resin (Bio-Rad) and incubated on ice for 30 min. The samples were dialyzed against ultrapure water at 4°C for 6 h using Slide-A-Lyzer Dialysis Cassettes (cutoff, 3.5 K) (Thermo Fisher Scientific) and treated with proteinase K (FUJIFILM Wako Pure Chemical Corporation) at 37°C for 1 h. The zinc concentration in the samples was determined using a Zinc Assay Kit (MG Metallogenics).

IMP-1 [2] = biological target: T1, IMP-1; format: binding; settings: DSF; control protein 52.5°C
Experimental: The DSF assay was performed using the Protein Thermal Shift Dye Kit (Thermo Fisher Scientific) and StepOnePlus Real-Time PCR Systems (Applied Biosystems) as follows: 2 µL of IMP-1 enzyme (100 µM), 1 µL of EDTA or HHIA solution (5 mM), 2.5 µL of diluted Protein Thermal Shift Dye (32×), 5 µL of Protein Thermal Shift buffer, and 9.5 µL of water were mixed in a test tube and incubated for 15 min at 4°C. Four replicates of each sample were performed. The fluorescence was monitored at 0.7°C increments from 4°C to 99°C. The relative fluorescence units were fitted with the Boltzmann equation using the TSA-CRAFT software to determine the melting point (Tm) ([47]).

[3] = test system: K. pneumoniae NUBL-8 (IMP-1); experiment: Susceptibility test, clinical isolate; format: cell-based; settings: Klebsiella pneumoniae
Experimental: as §1

[4] = test system: K. pneumoniae MS5674 (NDM-1/VIM-1); experiment: Susceptibility test, clinical isolate; format: cell-based; settings: Klebsiella pneumoniae
Experimental: as §1

E. coli 426 (IMP-1) = experiment: Susceptibility test, clinical isolate; format: cell-based; settings: Escherichia coli
Experimental: as §1

E. coli NUBL-22 (IMP-6) = experiment: Susceptibility test, clinical isolate; format: cell-based; settings: Escherichia coli
Experimental: as §1

E. coli 465 (IMP-1) = experiment: Susceptibility test, clinical isolate; format: cell-based; settings: Escherichia coli
Experimental: as §1

[5] = test system: K. pneumoniae AR0076 (VIM-1); experiment: Susceptibility test, clinical isolate; format: cell-based; settings: Klebsiella pneumoniae
Experimental: as §1

[6] = test system: E. cloacae NUBL-5 (IMP-1); experiment: Susceptibility test, clinical isolate; format: cell-based; settings: Enterobacter cloacae
Experimental: as §1

[7] = test system: K. oxytoca NUBL-827 (IMP-1); experiment: Susceptibility test, clinical isolate; format: cell-based; settings: Klebsiella oxytoca
Experimental: as §1

[8] = test system: K. pneumoniae NUBL-23 (IMP-6); experiment: Susceptibility test, clinical isolate; format: cell-based; settings: Klebsiella pneumoniae
Experimental: as §1

[9] = test system: K. pneumoniae AR0034 (IMP-4); experiment: Susceptibility test, clinical isolate; format: cell-based; settings: Klebsiella pneumoniae, K. pneumoniae AR0034 (IMP-4)
Experimental: as §1

[10] = test system: P. penneri E11-M475 (IMP-1); experiment: Susceptibility test, clinical isolate; format: cell-based; settings: Proteus penneri
Experimental: as §1

E. coli NUBL-24 (IMP-1) = experiment: Susceptibility test, clinical isolate; format: cell-based; settings: E. coli NUBL-24 (IMP-1); for MIC: Escherichia coli
Experimental: as §1

E. coli DH5α pBC-IMP-1 = experiment: Susceptibility test (microdilution), transformant; format: cell-based
Experimental: as §1

E. coli DH5α pBC-NDM-1 = experiment: Susceptibility test (microdilution), transformant; format: cell-based; settings: E. coli DH5α pBC-NDM-1
Experimental: as §1

E. coli DH5α pCL-SMB-1 = experiment: Susceptibility test (microdilution), transformant; format: cell-based; settings: E. coli DH5α pCL-SMB-1
Experimental: as §1

IMP-1 [11] = biological target: T1, IMP-1; experiment: In vitro inhibition assay (IPM hydrolysis); format: biochemical; settings: read-out: IC50 for IMP-1
Experimental: MBLs were incubated with HHIAs in 20 mM HEPES buffer (pH 7.5) containing 200 mM NaCl and 50 µg/mL BSA at 30°C for 5 min. IPM was added at a concentration of 100 µM, and the rate of IPM hydrolysis was monitored at 297 nm. The initial velocity (v0) rates were plotted against HHIA’s logarithmic concentrations, and the data were fitted to a four-parameter variable slope to obtain the half-maximal inhibitor concentration (IC50) values using GraphPad Prism 9 software (GraphPad Software). The inhibition constant (Ki) was determined as follows: v0 was measured after varying the concentrations of IPM and HHIAs, and inverse v0 (1/v0) was plotted against the inverse IPM concentration [1/(IPM)]. Lineweaver–Burk plots were created to obtain Ki values under the competitive inhibition model using the SigmaPlot 14 suite (Hulinks).

[12] = test system: IMP-1-producing E. coli NUBL-24; experiment: Time-killing assay; format: cell-based; settings: MPM 1 µg/mL alone
Experimental: The initial density of IMP-1-producing E. coli NUBL-24 (MPM MIC, 8 µg/mL) was adjusted to approximately 5 × 10^6 colony-forming units (cfu)/mL. Either MPM (1 µg/mL) or 9-HHIA/10-HHIA (50 µg/mL) alone or a combination of the two was added to the bacterial solution, and then incubation was performed at 37°C. LB broth containing bacteria alone was used as a control. At 0, 2, 4, 8, and 12 h after adding the agents, an aliquot of the bacterial culture was removed, diluted, and spotted on LB agar plates to count the viable bacterial cells. The detection limit was set at 333 cfu/mL.

[13] = IPM alone (Control), read-out: IPM MIC
[14] = MPM alone (Control), read-out: MPM MIC

T1 sequence (P52699 19-246, looked up, species assumed): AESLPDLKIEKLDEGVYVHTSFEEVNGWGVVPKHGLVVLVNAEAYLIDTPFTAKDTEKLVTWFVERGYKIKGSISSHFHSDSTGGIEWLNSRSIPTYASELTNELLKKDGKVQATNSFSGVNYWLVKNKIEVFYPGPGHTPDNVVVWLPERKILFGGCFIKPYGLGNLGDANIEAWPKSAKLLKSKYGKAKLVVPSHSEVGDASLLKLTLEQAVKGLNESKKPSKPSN

SMILES: CC(C)(O/N=C(\C(=O)N[C@@H]1C(=O)N2C(C(=O)[O-])=C(C[n+]3ccccc3)CS[C@H]12)c1csc(N)n1)C(=O)O [CAZ, ceftazidime]
- MIC (E. coli DH5α pBC-VIM-2; Escherichia coli, read-out: CAZ MIC, CAZ alone (Control)): 4 to 8 µg/mL (≈ 7.32 to 14.6 µM)

- Zinc ions in IMP-1 after treatment (IMP-1 [1]): completely lost
- Melting temperature (Tm) of treated IMP-1 (IMP-1 [2]): 43.4 °C
SMILES: O=C(O)CN(CCN(CC(=O)O)CC(=O)O)CC(=O)O [EDTA, reference compound]

- MIC [3, 13]: 4 µg/mL (≈ 13.4 µM)
- MIC [4, 13]: 32 µg/mL (≈ 107 µM)
- MIC (E. coli 426 (IMP-1); [13]): 8 µg/mL (≈ 26.7 µM)
- MIC (E. coli NUBL-22 (IMP-6); [13]): 2 µg/mL (≈ 6.68 µM)
- MIC (E. coli 465 (IMP-1); [13]): 32 µg/mL (≈ 107 µM)
- MIC [5, 13]: 32 µg/mL (≈ 107 µM)
- MIC [6, 13]: 8 µg/mL (≈ 26.7 µM)
- MIC [7, 13]: 16 µg/mL (≈ 53.4 µM)
- MIC [8, 13]: 1 µg/mL (≈ 3.34 µM)
- MIC [9, 13]: 4 µg/mL (≈ 13.4 µM)
- MIC [10, 13]: > 64 µg/mL
- MIC (E. coli NUBL-24 (IMP-1); [13]): 8 µg/mL (≈ 26.7 µM)
SMILES: C[C@@H](O)[C@H]1C(=O)N2C(C(=O)O)=C(SCCN=CN)C[C@H]12 [IPM, imipenem, reference compound]

SMILES: C=C(CC(=O)O)C(=O)O [Itaconic acid, itaconic acid]
- MPM MIC (E. coli DH5α pBC-IMP-1; +agent 6.25 μg/mL): 1 µg/mL
- MPM MIC (E. coli DH5α pBC-IMP-1; +agent 25 μg/mL): 1 µg/mL
- MPM MIC (E. coli DH5α pBC-IMP-1; +agent 100 μg/mL): 1 µg/mL
- MPM MIC (E. coli DH5α pBC-NDM-1; +agent 6.25 μg/mL): >64 µg/mL
- MPM MIC (E. coli DH5α pBC-NDM-1; +agent 25 μg/mL): >64 µg/mL
- MPM MIC (E. coli DH5α pBC-NDM-1; +agent 100 μg/mL): >64 µg/mL
- MPM MIC (E. coli DH5α pCL-SMB-1; +agent 6.25 μg/mL): 32 µg/mL
- MPM MIC (E. coli DH5α pCL-SMB-1; +agent 25 μg/mL): 32 µg/mL
- MPM MIC (E. coli DH5α pCL-SMB-1; +agent 100 μg/mL): 32 µg/mL
- CAZ MIC (E. coli DH5α pBC-VIM-2; +agent 6.25 μg/mL): 8 µg/mL
- CAZ MIC (E. coli DH5α pBC-VIM-2; +agent 25 μg/mL): 8 µg/mL
- CAZ MIC (E. coli DH5α pBC-VIM-2; +agent 100 μg/mL): 8 µg/mL
- IC50 (IMP-1 [11]): > 1 mM

SMILES: C[C@@H](O)[C@H]1C(=O)N2C(C(=O)O)=C(S[C@@H]3CN[C@H](C(=O)N(C)C)C3)[C@H](C)[C@H]12 [MPM, meropenem, reference compound]
- MIC [3, 14]: 16 µg/mL (≈ 41.7 µM)
- MIC [4, 14]: > 64 µg/mL
- MIC (E. coli 426 (IMP-1); [14]): 16 µg/mL (≈ 41.7 µM)
- MIC (E. coli NUBL-22 (IMP-6); [14]): 32 µg/mL (≈ 83.4 µM)
- MIC (E. coli 465 (IMP-1); [14]): 32 µg/mL (≈ 83.4 µM)
- MIC [5, 14]: 32 µg/mL (≈ 83.4 µM)
- MIC [6, 14]: 16 µg/mL (≈ 41.7 µM)
- MIC [7, 14]: 32 µg/mL (≈ 83.4 µM)
- MIC [8, 14]: 64 µg/mL (≈ 167 µM)
- MIC [9, 14]: 8 µg/mL (≈ 20.9 µM)
- MIC [10, 14]: > 64 µg/mL
- MIC (E. coli NUBL-24 (IMP-1); [14]): 8 µg/mL (≈ 20.9 µM)
- MPM MIC (E. coli NUBL-24 (IMP-1); MPM alone (Control)): 8 µg/mL
- MIC (E. coli DH5α pBC-IMP-1; Escherichia coli, read-out: MPM MIC, MPM alone (Control)): 1 µg/mL (≈ 2.61 µM)
- MPM MIC (E. coli DH5α pBC-IMP-1; MPM alone (Control)): 1 µg/mL
- Time-kill: MPM alone [12]: regrew close to the control level at 12 h
